Read-outs that look alike come from different tables or passages of the source.
What was measured:
[1] = target: T1, TLR7 (Homo sapiens, UniProt Q9NYK1); assay: Human PBMC cell-based assay, TLR7 agonist GS-986 stimulation, cytokine (IL-6 and IFNα) readout; conditions: human PBMCs, read-out: TLR-7 EC50
T1 construct: lymphocytes, monocytes and dendritic cells that express TLR7, TLR8 and TLR9; endogenous in cells; host or cells: human PBMCs from healthy donors
T1 sequence (Q9NYK1 27-1049): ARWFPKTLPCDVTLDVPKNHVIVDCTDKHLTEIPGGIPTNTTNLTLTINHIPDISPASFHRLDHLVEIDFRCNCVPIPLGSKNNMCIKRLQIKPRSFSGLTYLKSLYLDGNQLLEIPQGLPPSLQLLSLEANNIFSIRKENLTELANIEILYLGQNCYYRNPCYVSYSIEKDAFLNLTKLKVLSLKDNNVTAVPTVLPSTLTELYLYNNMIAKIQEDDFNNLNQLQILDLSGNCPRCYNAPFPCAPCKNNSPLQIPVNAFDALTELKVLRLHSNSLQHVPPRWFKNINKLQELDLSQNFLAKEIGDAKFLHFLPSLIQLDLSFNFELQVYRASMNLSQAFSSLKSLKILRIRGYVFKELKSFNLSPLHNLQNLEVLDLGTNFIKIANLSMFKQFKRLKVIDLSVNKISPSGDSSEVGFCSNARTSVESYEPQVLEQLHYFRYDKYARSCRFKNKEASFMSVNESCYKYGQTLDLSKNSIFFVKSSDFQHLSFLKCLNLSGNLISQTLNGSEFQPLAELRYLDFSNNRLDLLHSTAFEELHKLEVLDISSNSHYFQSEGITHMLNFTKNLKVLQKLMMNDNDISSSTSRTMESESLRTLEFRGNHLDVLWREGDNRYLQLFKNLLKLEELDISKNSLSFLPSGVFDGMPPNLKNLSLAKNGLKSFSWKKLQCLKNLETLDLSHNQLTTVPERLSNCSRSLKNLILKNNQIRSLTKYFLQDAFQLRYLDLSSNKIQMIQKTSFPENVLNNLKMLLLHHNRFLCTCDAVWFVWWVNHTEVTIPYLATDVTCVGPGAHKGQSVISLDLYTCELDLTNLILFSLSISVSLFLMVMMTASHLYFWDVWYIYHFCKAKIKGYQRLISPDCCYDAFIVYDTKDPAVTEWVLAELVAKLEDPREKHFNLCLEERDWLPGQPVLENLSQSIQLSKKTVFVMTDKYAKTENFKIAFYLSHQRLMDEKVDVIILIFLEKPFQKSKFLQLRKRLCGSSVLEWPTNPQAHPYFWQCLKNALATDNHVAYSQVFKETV
Method in brief: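 Cryopreserved healthy-donor PBMCs (100,000 cells/well, RPMI-1640 + 10% FBS) preincubated 1 h at 37 °C with antagonist (10-point dose response), then stimulated 6 h with GS-986 (400 nM final, TLR7) or ODN-2216 (3 μM final, TLR9). Supernatant IL-6 and IFNα measured by electrochemiluminescence immunoassay; EC50 from sigmoidal fit.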

[2] = target: cloned hERG potassium channel encoded by the KCNH2 gene (Homo sapiens, UniProt Q12809); assay: hERG FASTPatch assay (QPatch patch clamp, HEK293T cells); format: cell-based; conditions: HEK293T cells, 1, 3, 10 and 30 uM, room temperature; Table 27
cloned hERG potassium channel encoded by the KCNH2 gene, sequence (Q12809 whole entry): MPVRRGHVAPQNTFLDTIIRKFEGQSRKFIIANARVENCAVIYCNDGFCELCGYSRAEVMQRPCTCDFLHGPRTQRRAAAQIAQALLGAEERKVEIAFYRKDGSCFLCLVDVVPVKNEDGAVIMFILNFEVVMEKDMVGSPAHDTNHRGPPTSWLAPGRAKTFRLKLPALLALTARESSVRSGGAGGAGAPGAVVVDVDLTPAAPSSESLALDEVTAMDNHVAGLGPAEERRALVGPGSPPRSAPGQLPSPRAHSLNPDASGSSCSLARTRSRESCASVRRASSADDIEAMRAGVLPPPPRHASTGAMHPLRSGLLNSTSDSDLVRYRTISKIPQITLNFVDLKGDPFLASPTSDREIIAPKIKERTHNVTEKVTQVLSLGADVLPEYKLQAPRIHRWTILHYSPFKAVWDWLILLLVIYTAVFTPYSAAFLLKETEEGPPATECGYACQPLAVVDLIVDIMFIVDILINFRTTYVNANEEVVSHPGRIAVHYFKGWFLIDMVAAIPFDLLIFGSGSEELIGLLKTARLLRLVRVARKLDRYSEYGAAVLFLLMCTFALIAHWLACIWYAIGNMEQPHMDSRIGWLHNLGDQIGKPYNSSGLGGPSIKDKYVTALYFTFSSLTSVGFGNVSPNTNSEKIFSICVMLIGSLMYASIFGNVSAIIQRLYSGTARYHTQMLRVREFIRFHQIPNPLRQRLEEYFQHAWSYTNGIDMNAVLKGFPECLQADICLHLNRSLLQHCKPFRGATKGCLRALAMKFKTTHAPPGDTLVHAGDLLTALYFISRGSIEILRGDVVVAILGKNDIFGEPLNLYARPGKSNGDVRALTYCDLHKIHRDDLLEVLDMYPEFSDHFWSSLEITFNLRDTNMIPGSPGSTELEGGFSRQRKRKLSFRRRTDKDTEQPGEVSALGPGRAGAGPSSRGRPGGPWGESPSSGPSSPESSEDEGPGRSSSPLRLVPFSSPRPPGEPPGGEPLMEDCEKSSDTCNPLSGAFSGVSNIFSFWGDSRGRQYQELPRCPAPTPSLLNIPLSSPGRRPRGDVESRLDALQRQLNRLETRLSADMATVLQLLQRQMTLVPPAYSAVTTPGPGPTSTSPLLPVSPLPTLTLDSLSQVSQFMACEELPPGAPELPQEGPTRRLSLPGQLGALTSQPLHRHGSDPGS
Protocol: The FASTPatch® Assay (Charles River) was used to examine the in vitro effects of the compounds provided herein on the cloned hERG potassium channel encoded by the KCNH2 gene and stably expressed in HEK293T cells. Vehicle, test and control article formulations were prepared by diluting DMSO stock solutions in HB-PS (HEPES-buffered physiological saline solution) and were delivered to cells via the QPatch robot pipetting system to a final concentration of 0.3% DMSO. Test compound final concentrations of 1, 3, 10 and 30 uM were applied to cells (n >3, where n=the number of cells/concentration) in ascending order in at least three minute intervals separated by solution exchange. The positive control, 50 nM cisparide, was applied in the same manner. Cell membrane currents were recorded at room temperature with up to 48 parallel patch clamp amplifiers in the QPatch HT® or QPatch HTX® system, and only cells with validated whole-cell recordings (seal resistance >200 MQ and leak current <25% channel current) were used. Onset and block of hERG current was measured using a stimulus voltage pattern consisting of a 500 ms prepulse to −40 mV, a 2-second activating pulse to +40 mV, followed by a 2-second test pulse to −40 mV. The pulse pattern was repeated continuously at 10-second intervals from a holding potential of −80 mV. % Block={1-1/[1+([Test]/IC50)^N]}*100% Where [Test] is the concentration of test article, IC50 is the concentration of the test article producing half-maximal inhibition, N is the Hill coefficient and % Block is the percentage of current inhibited at each concentration of the test article. Nonlinear least squares fits will be solved with the Solver add-in for Excel 2000 or later (Microsoft, Redmon, WA). TurboSol analysis for test compound solubility was performed for each concentration tested using a Nephelostar reader measuring light scatter from a 635 nm laser source. Based on validation experiments, light scatter above four times the background level was considered an indication of the presence of particles in suspension.

[3] = GS-986 400 nM, 6 hours, Table 26

EC50 [1, 3] | EC50 ([1]; Table 27 comparison) | Compound | IC50 [2]
18.1 nM |  | Cc1cc(-c2[nH]c3cc(-c4ccc(N5CCNCC5)nc4)ccc3c2C)cc(C)n1 [Example 1, 2-(2,6-dimethylpyridin-4-yl)-3-methyl-6-(6-(piperazin-1-yl)pyridin-3-yl)-1H-indole] | ≥ 30000 nM
0.17 nM |  | CCc1c(-c2cc(C)c3ncnn3c2)[nH]c2cc(-c3ccc(N4CCNCC4)nc3)ccc12 [Example 167, 6-(3-ethyl-6-(6-(piperazin-1-yl)pyridin-3-yl)-1H-indol-2-yl)-8-methyl-[1,2,4]triazolo[1,5-a]pyridine] | 
17.3 nM |  | Cc1cc(-c2[nH]c3cc(-c4ccc(N5CCN(CCO)CC5)nc4)ccc3c2C)cc(C)n1 [Example 37, 2-(4-(5-(2-(2,6-dimethylpyridin-4-yl)-3-methyl-1H-indol-6-yl)pyridin-2-yl)piperazin-1-yl)ethan-1-ol] | 
1.2 nM |  | Cc1c(-c2cc(C)c3ncnn3c2)[nH]c2cc(-c3ccc(N4CCNCC4)nc3)ccc12 [Example 71] | 

More lines, now with the values behind:

Compound | EC50 [1, 3] | EC50 ([1]; Table 27 comparison) | IC50 [2]
Cc1cc(-c2[nH]c3cc(C4CCNCC4)ccc3c2C(C)C)cn2ncnc12 [Example 55] | 4.8 nM |  | 
Cc1cc(-c2[nH]c3cc(C4CCNCC4)ccc3c2C)cc(C)n1 [Example 48, 2-(2,6-dimethylpyridin-4-yl)-3-methyl-6-(piperidin-4-yl)-1H-indole] | 692 nM |  | 
Cc1cc(-c2[nH]c3cc(-c4ccc(N5CCNCC5)nc4)ccc3c2C2CC2)cn(C)c1=O [Example 165] | 0.33 nM |  | 
CCc1c(-c2cc(OC)c3ncnn3c2)[nH]c2cc(-c3ccc(N4CCNCC4)nc3)ccc12 [Example 169] | 0.13 nM |  | 
Cc1cc(-c2[nH]c3cc(C4CCCNC4)ccc3c2C)cc(C)n1 (stereo not drawn) [Example 53] | > 1000 nM | > 1000 nM | 19600 nM

From patent US20250002471A1 (Gilead Sciences, Inc., priority 2020, published 2025)
